Test results reported in patent publication US20260286302A1, “METHODS FOR PRODUCING A SUPER CENTRAL MEMORY CD8 T CELL SUBTYPE BY POLY(ADP-RIBOSE) POLYMERASE (PARP) INHIBITION AND USES THEREOF” (Georgetown University, priority 2023, published 2026).

Columns and labels:
[1] = system: pMel-1 CD8 T cells; format: cell-based; conditions: gp100-activated; for percentage of CD44hiCD62Lhi TCM CD8 T cell population: 48 h of treatment, for PARPi concentration-dependent
Experimental: For ACT experiments, CD8+ T cells from pMel-1 mice were activated with gp100 peptide with and without PARPi for 48 h. Based on their CD44 and CD62L expression, cells were sorted by FACS and transferred into 9-day-old B16F10 melanoma-bearing mice tumor-bearing mice (1×10^6 cells per mouse). Tumor growth and survival of mice were monitored.
A total of 0.1-0.2×10^6 cells per sample were stained for Live/Dead staining followed by fixation and permeabilization. […] CD8^+ T cells from tumor samples were stained similarly. Data acquisition was performed on a BD LSR II flow cytometer using the software FACS Diva v.9.0. Results were analyzed using FlowJo software (TreeStar). […]

[2] = system: human CD8 T cells; experiment: In vitro-activated human CD8+ T cells, memory characteristics; format: cell-based; conditions: anti-CD3/CD28 coupled beads for 72 h
Experimental: For evaluation of memory characteristics in human CD8+ T cells, naive CD8+ T cells were activated in the presence or absence of PARPi, by Dynabeads™ Human T-Activator CD3/CD28 (Thermo Fisher #11131), […]. Post-activation cells were gated upon CD8^+ T cell population and various characteristics were investigated as described in the Examples below.
A total of 0.1-0.2×10^6 cells per sample were stained for Live/Dead staining followed by fixation and permeabilization. For IFNγ and granzyme B (Gzm B) staining, BD Cytofix/Cytoperm (catalog no. 51-2090KZ) and BD Perm/Wash (catalog no. 51-2091KZ) buffer set were used according to the manufacturer's instructions (BD Pharmingen). CD8^+ T cells from tumor samples were stained similarly. Data acquisition was performed on a BD LSR II flow cytometer using the software FACS Diva v.9.0. Results were analyzed using FlowJo software (TreeStar). MitoFM, a green-fluorescent mitochondrial stain, which localizes to mitochondria, was used as described previously (Sukumar et al., Cell Metab 23 (1): 63-76, 2016).
To this end, human naïve CD8 T cells were activated with anti-CD3/CD28 coupled beads for 72 h.

| Structure (SMILES) | percentage of CD44hiCD62Lhi TCM CD8 T cell population [1] | IFNγ expression [2] | number of CD45ROhiCCR7hi cells [2] | number of CD45ROhiCD62Lhi cells [2] | expression of IFNγ and Gzm B in CD44hiCD62Lhi CD8 T cells ([1]; 48 h) |
| --- | --- | --- | --- | --- | --- |
| NC(=O)c1cccc2cn(-c3ccc([C@@H]4CCCNC4)cc3)nc12 [Niraparib] | significantly increased |  |  |  |  |
| Cn1ncnc1[C@H]1c2n[nH]c(=O)c3cc(F)cc(c23)N[C@@H]1c1ccc(F)cc1 [Talazoparib] | significantly increased | significant increase | significant increase | significant increase | significantly increased |
